Tested on: P12-Ichikawa
Test: cell viability relative to DMSO control; higher = less cytotoxic
Details: 48 h
Outline: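 Viability, reported as a per-plate percentage of DMSO wells with cell-free wells as background, came from CellTiter-Glo One luminescence. Reading took place after 48 h at 37°C. Before that, NOMO1 or SEM (500 cells/well) or P12-Ichikawa (1000 cells/well) leukemia cells, adapted for at least four passages in each medium, were seeded in 1536-well plates (5 μl) and pin-dosed with library compounds in DMSO, 47 μM to 0.79 nM over 11 threefold points.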

[1] = HPLM + 10% dialyzed FBS, 0.000781 µM
[2] = HPLM + 10% dialyzed FBS, 0.00234 µM
[3] = HPLM + 10% dialyzed FBS, 0.00702 µM
[4] = HPLM + 10% dialyzed FBS, 0.0211 µM
[5] = HPLM + 10% dialyzed FBS, 0.0632 µM
[6] = HPLM + 10% dialyzed FBS, 0.19 µM
[7] = HPLM + 10% dialyzed FBS, 0.569 µM
[8] = HPLM + 10% dialyzed FBS, 1.71 µM
[9] = HPLM + 10% dialyzed FBS, 5.12 µM
[10] = HPLM + 10% dialyzed FBS, 15.4 µM
[11] = HPLM + 10% dialyzed FBS, 46.1 µM
[12] = RPMI 5 mM glucose + 10% dialyzed FBS, 0.000781 µM
[13] = RPMI 5 mM glucose + 10% dialyzed FBS, 0.00234 µM
[14] = RPMI 5 mM glucose + 10% dialyzed FBS, 0.00702 µM
[15] = RPMI 5 mM glucose + 10% dialyzed FBS, 0.0211 µM
[16] = RPMI 5 mM glucose + 10% dialyzed FBS, 0.0632 µM
[17] = RPMI 5 mM glucose + 10% dialyzed FBS, 0.19 µM
[18] = RPMI 5 mM glucose + 10% dialyzed FBS, 0.569 µM
[19] = RPMI 5 mM glucose + 10% dialyzed FBS, 1.71 µM
[20] = RPMI 5 mM glucose + 10% dialyzed FBS, 5.12 µM
[21] = RPMI 5 mM glucose + 10% dialyzed FBS, 15.4 µM
[22] = RPMI 5 mM glucose + 10% dialyzed FBS, 46.1 µM
[23] = RPMI 5 mM glucose + 10% FBS, 0.000781 µM
[24] = RPMI 5 mM glucose + 10% FBS, 0.00234 µM
[25] = RPMI 5 mM glucose + 10% FBS, 0.00702 µM
[26] = RPMI 5 mM glucose + 10% FBS, 0.0211 µM
[27] = RPMI 5 mM glucose + 10% FBS, 0.0632 µM
[28] = RPMI 5 mM glucose + 10% FBS, 0.19 µM
[29] = RPMI 5 mM glucose + 10% FBS, 0.569 µM
[30] = RPMI 5 mM glucose + 10% FBS, 1.71 µM
[31] = RPMI 5 mM glucose + 10% FBS, 5.12 µM
[32] = RPMI 5 mM glucose + 10% FBS, 15.4 µM
[33] = RPMI 5 mM glucose + 10% FBS, 46.1 µM

Row | SMILES | cell viability [1] | cell viability [2] | cell viability [3] | cell viability [4] | cell viability [5] | cell viability [6] | cell viability [7] | cell viability [8] | cell viability [9] | cell viability [10] | cell viability [11] | cell viability [12] | cell viability [13] | cell viability [14] | cell viability [15] | cell viability [16] | cell viability [17] | cell viability [18] | cell viability [19] | cell viability [20] | cell viability [21] | cell viability [22] | cell viability [23] | cell viability [24] | cell viability [25] | cell viability [26] | cell viability [27] | cell viability [28] | cell viability [29] | cell viability [30] | cell viability [31] | cell viability [32] | cell viability [33]
1 | COc1ccc(CCC(=O)c2c(O)cc(O[C@@H]3O[C@H](CO)[C@@H](O)[C@H](O)[C@H]3O[C@@H]3O[C@@H](C)[C@H](O)[C@@H](O)[C@H]3O)cc2O)cc1O | 115% | 117% | 116% | 110% | 119% | 116% | 117% | 113% | 107% | 107% | 38.8% | 105% | 115% | 118% | 116% | 108% | 114% | 111% | 113% | 107% | 106% | 105% | – | – | – | – | – | – | – | – | – | – | –
2 | CNC[C@H](O)[C@@H](O)[C@H](O)[C@H](O)CO | 114% | 124% | 122% | 130% | 123% | 125% | 120% | 134% | 128% | 119% | 119% | 109% | 126% | 124% | 125% | 125% | 126% | 122% | 131% | 123% | 119% | 126% | – | – | – | – | – | – | – | – | – | – | –
3 | Oc1cc(-c2nc(-c3ccccc3)[nH]c2-c2ccncc2)ccc1Cl | 109% | 110% | 110% | 115% | 118% | 117% | 106% | 101% | 92.7% | 82.9% | 65.7% | – | – | – | – | – | – | – | – | – | – | – | 122% | 111% | 117% | 122% | 119% | 118% | 111% | 113% | 84.7% | 74.5% | 45.2%
4 | Cc1ccc2nc(NCCN)c3ncc(C)n3c2c1 | 104% | 105% | 106% | 101% | 106% | 104% | 103% | 105% | 109% | 94.8% | 42.5% | 102% | 110% | 104% | 105% | 104% | 91% | 101% | 102% | 103% | 101% | 33.7% | 97.8% | 111% | 105% | 107% | 107% | 108% | 102% | 104% | 102% | 97.4% | 23.2%
5 | C[S+](=O)([O-])Oc1ccc2c(NC(N)=O)c(C(=O)c3ccc(Cl)cc3Cl)oc2c1 | 113% | 120% | 122% | 116% | 120% | 113% | 122% | 119% | 108% | 99.9% | 66.5% | 116% | 118% | 112% | 110% | 117% | 122% | 122% | 126% | 118% | 105% | 91.5% | 112% | 109% | 121% | 117% | 130% | 116% | 123% | 125% | 129% | 109% | 73.3%
6 | OC1=CC=C(C=C1)C/2=C/C3=C(OC2)C=C(O)C=C3 | 109% | 91.7% | 111% | 117% | 109% | 116% | 104% | 80.2% | 19.8% | 2.76% | 1.12% | 102% | 112% | 111% | 113% | 111% | 106% | 102% | 74.9% | 16.2% | 2.96% | 0.54% | 108% | 121% | 123% | 110% | 126% | 111% | 107% | 88.2% | 24.3% | 1.45% | -0.00081%
7 | CCCCCNC(=N)N/N=C/c1c[nH]c2ccc(OC)cc12 | 122% | 119% | 121% | 130% | 126% | 139% | 128% | 137% | 121% | 59.8% | 20.2% | – | – | – | – | – | – | – | – | – | – | – | – | – | – | – | – | – | – | – | – | – | –
8 | OC[C@H]1O[C@H](C[C@@H]1O)N2/C=C(C(=O)NC2=O)/C(F)(F)F | 120% | 116% | 119% | 110% | 117% | 98% | 75.9% | 52.9% | 17.4% | 12.5% | 6.49% | 107% | 114% | 114% | 113% | 105% | 107% | 89.6% | 93.3% | 23.1% | 16.8% | 11.1% | 126% | 113% | 118% | 114% | 123% | 121% | 112% | 107% | 38.6% | 15.7% | 8.41%
9 | COC1=CC=C(C=C1)/C2=C(O)/C(=O)C3=C(O)C=C(O)C(=C3O2)CC=C(C)C | 115% | 115% | 115% | 117% | 121% | 122% | 121% | 119% | 113% | 87.9% | 122% | 118% | 110% | 122% | 116% | 127% | 115% | 125% | 128% | 117% | 95.8% | 118% | 108% | 111% | 105% | 110% | 108% | 115% | 114% | 120% | 123% | 67% | 121%
